In US20200368247A1, “CENICRIVIROC FOR THE TREATMENT OF FIBROSIS” (Tobira Therapeutics, Inc., priority 2014, published 2020):

Assay: Study 202 fasting metabolic laboratory parameters
Assay type: in vivo, human
Excerpt: All abnormalities in total cholesterol, LDL cholesterol, triglycerides, or glucose were Grade 1 or Grade 2.
Mean baseline values and changes from baseline in HbA1c, HOMA-IR, fasting LDL, fasting HDL, fasting total cholesterol, fasting total cholesterol/HDL ratio, and fasting triglycerides are shown in Table 36.

[1] = All CVC (N = 115), EFV (N = 28), through Week 48
[2] = CVC 100 mg (N = 58), through Week 48
[3] = CVC 200 mg (N = 57), through Week 48

CCCCOCCOc1ccc(-c2ccc3c(c2)/C=C(/C(=O)Nc2ccc([S@@+]([O-])Cc4cncn4CCC)cc2)CCCN3CC(C)C)cc1 [CVC, (S)-8-[4-(2-Butoxyethoxy)phenyl]-1-isobutyl-N-(4-{[(1-propyl-1H-imidazol-5-yl)methyl]sulfinyl}phenyl)-1,2,3,4-tetrahydro-1-benzazocine-5-carboxamide]
Fasting glucose (serum, high) abnormality, any grade [1]: 5 (4%) n (%)
Fasting total cholesterol abnormality, Grade 1 [1]: 5 (4%) n (%)
Fasting total cholesterol abnormality, Grade 2 [1]: 3 (3%) n (%)
Fasting total cholesterol abnormality, Grade 3 [1]: 0 n (%)
Fasting total cholesterol abnormality, Grade 4 [1]: 0 n (%)
Fasting total cholesterol abnormality, any grade [1]: 8 (7%) n (%)
Fasting triglycerides abnormality, Grade 1 [1]: 0 n (%)
Fasting triglycerides abnormality, Grade 2 [1]: 1 (<1%) n (%)
Fasting triglycerides abnormality, Grade 3 [1]: 0 n (%)
Fasting triglycerides abnormality, Grade 4 [1]: 0 n (%)
Fasting triglycerides abnormality, any grade [1]: 1 (<1%) n (%)
Fasting triglycerides, mean change from baseline (All CVC, EFV, Week 4): -5 mg/dL
HOMA-IR, mean change from baseline (All CVC, EFV, Week 4): −0.30
HbA1c, mean change from baseline (All CVC, EFV, Week 4): −0.03 % Hb
HbA1c, mean change from baseline (All CVC, EFV, Week 12): −0.06 % Hb
HbA1c, mean change from baseline (All CVC, EFV, Week 24): 0.06 % Hb
HbA1c, mean change from baseline (All CVC, EFV, Week 48): 0.10 % Hb
Any fasting laboratory abnormality, worst Grade 1 [2]: 3 (5%) n (%)
Any fasting laboratory abnormality, worst Grade 2 [2]: 1 (2%) n (%)
Any fasting laboratory abnormality, worst Grade 3 [2]: 0 n (%)
Any fasting laboratory abnormality, worst Grade 4 [2]: 0 n (%)
Any graded (Grade 1-4) fasting laboratory abnormality [2]: 4 (7%) n (%)
Fasting LDL cholesterol abnormality, Grade 1 [2]: 1 (2%) n (%)
Fasting LDL cholesterol abnormality, Grade 2 [2]: 1 (2%) n (%)
Fasting LDL cholesterol abnormality, Grade 3 [2]: 0 n (%)
Fasting LDL cholesterol abnormality, Grade 4 [2]: 0 n (%)
Fasting LDL cholesterol abnormality, any grade [2]: 2 (3%) n (%)
Fasting glucose (serum, high) abnormality, Grade 1 [2]: 0 n (%)
Fasting glucose (serum, high) abnormality, Grade 2 [2]: 0 n (%)
Fasting glucose (serum, high) abnormality, Grade 3 [2]: 0 n (%)
Fasting glucose (serum, high) abnormality, Grade 4 [2]: 0 n (%)
Fasting glucose (serum, high) abnormality, any grade [2]: 0 n (%)
Fasting total cholesterol abnormality, Grade 1 [2]: 3 (5%) n (%)
Fasting total cholesterol abnormality, Grade 2 [2]: 0 n (%)
Fasting total cholesterol abnormality, Grade 3 [2]: 0 n (%)
Fasting total cholesterol abnormality, Grade 4 [2]: 0 n (%)
Fasting total cholesterol abnormality, any grade [2]: 3 (5%) n (%)
Fasting triglycerides abnormality, Grade 1 [2]: 0 n (%)
Fasting triglycerides abnormality, Grade 2 [2]: 0 n (%)
Fasting triglycerides abnormality, Grade 3 [2]: 0 n (%)
Fasting triglycerides abnormality, Grade 4 [2]: 0 n (%)
Fasting triglycerides abnormality, any grade [2]: 0 n (%)
change in fasting total cholesterol (mainly LDL cholesterol) (CVC 100 mg and 200 mg, through Week 48): decrease
Fasting triglycerides, mean change from baseline (CVC 100 mg, Week 4): -8 mg/dL
HbA1c, mean change from baseline (CVC 100 mg, Week 4): 0.01 % Hb
HbA1c, mean change from baseline (CVC 100 mg, Week 12): −0.04 % Hb
Fasting triglycerides, mean change from baseline (CVC 100 mg, Week 24): -8 mg/dL
HbA1c, mean change from baseline (CVC 100 mg, Week 24): 0.06 % Hb
HbA1c, mean change from baseline (CVC 100 mg, Week 48): 0.09 % Hb
Any fasting laboratory abnormality, worst Grade 1 [3]: 6 (11%) n (%)
Any fasting laboratory abnormality, worst Grade 2 [3]: 6 (11%) n (%)
Any fasting laboratory abnormality, worst Grade 3 [3]: 0 n (%)
Any fasting laboratory abnormality, worst Grade 4 [3]: 0 n (%)
Any graded (Grade 1-4) fasting laboratory abnormality [3]: 12 (21%) n (%)
Fasting LDL cholesterol abnormality, Grade 1 [3]: 2 (4%) n (%)
Fasting LDL cholesterol abnormality, Grade 2 [3]: 2 (4%) n (%)
Fasting LDL cholesterol abnormality, Grade 3 [3]: 0 n (%)
Fasting LDL cholesterol abnormality, Grade 4 [3]: 0 n (%)
Fasting LDL cholesterol abnormality, any grade [3]: 4 (7%) n (%)
Fasting glucose (serum, high) abnormality, Grade 1 [3]: 3 (5%) n (%)
Fasting glucose (serum, high) abnormality, Grade 2 [3]: 2 (4%) n (%)
Fasting glucose (serum, high) abnormality, Grade 3 [3]: 0 n (%)
Fasting glucose (serum, high) abnormality, Grade 4 [3]: 0 n (%)
Fasting glucose (serum, high) abnormality, any grade [3]: 5 (9%) n (%)
Fasting total cholesterol abnormality, Grade 1 [3]: 2 (4%) n (%)
Fasting total cholesterol abnormality, Grade 2 [3]: 3 (5%) n (%)
Fasting total cholesterol abnormality, Grade 3 [3]: 0 n (%)
Fasting total cholesterol abnormality, Grade 4 [3]: 0 n (%)
Fasting total cholesterol abnormality, any grade [3]: 5 (9%) n (%)
Fasting triglycerides abnormality, Grade 1 [3]: 0 n (%)
Fasting triglycerides abnormality, Grade 2 [3]: 1 (2%) n (%)
Fasting triglycerides abnormality, Grade 3 [3]: 0 n (%)
Fasting triglycerides abnormality, Grade 4 [3]: 0 n (%)
Fasting triglycerides abnormality, any grade [3]: 1 (2%) n (%)
Fasting triglycerides, mean change from baseline (CVC 200 mg, Week 4): -2 mg/dL
HbA1c, mean change from baseline (CVC 200 mg, Week 4): −0.08 % Hb
HbA1c, mean change from baseline (CVC 200 mg, Week 12): −0.08 % Hb
HbA1c, mean change from baseline (CVC 200 mg, Week 24): 0.06 % Hb
Fasting total cholesterol, mean change from baseline (CVC 200 mg, Week 48): -9 mg/dL
HbA1c, mean change from baseline (CVC 200 mg, Week 48): 0.10 % Hb
